We go through one substance from patent US12059462B2, “Composition containing influenza vaccine” (priority 2018, dated 2024).

Test [1] concerns LAH binding monoclonal antibody (#2, #4 and #5). Nature of the test: Binding capacity of antibody to LAH epitope, order of formalin treatment. The conditions noted are these: FIG. 15; H3N2 strain X31; formalin treatment after (Post-fix) or before (Pre-fix) the acidic treatment.
The subject of test [2] is synthetic peptide (H3) corresponding to a portion (long alpha helix) of the stem portion. The conditions noted are these: mouse, in vivo, ip.

Consider “membrane fusion-type H3N2 HA split vaccine: HA split vaccine of H3N2 influenza virus (strain X31) subjected to acidic treatment (pH 5.0), then formalin treatment”, for which, in test [1], the “binding of the LAH binding monoclonal antibody to the vaccine” value was “more strongly than to the vaccine (Pre-fix)”. For the same substance, the “titer of the anti-LAH antibody in the sera” value in test [2] is listed as “higher titer of the anti-LAH antibody than the membrane fusion-type split vaccine (Pre-fix)”.
